Assay results taken from patent publication US11542488B2, “Sortase synthesized chimeric antigen receptors” (Novartis AG, priority 2014, dated 2023).
Where two headings read alike, the source gives them in different places.

Columns and labels:
[1] = system: huCART19 cells; assay: 4 day co-culture proliferation assay of CARTs with Nalm-6 cells in the presence of RAD001; type: cell-based, human
From the text: A humanized, anti-human CD19 CAR (huCART19) lentiviral transfer vector was used to produce the genomic material packaged into VSVg pseudotyped lentiviral particles. The amino acid and nucleotide sequence of the humanized anti-human CD19 CAR (huCART19) is CAR 1, ID 104875, described in PCT publication, WO2014/153270, filed Mar. 15, 2014, and is designated SEQ ID NOs. 85 and 31 therein.
Lentiviral transfer vector DNA is mixed with the three packaging components VSVg env, gag/pol and rev in combination with lipofectamine reagent to transfect Lenti-X 293T cells. Medium is changed after 24 h and 30 h thereafter, the virus-containing media is collected, filtered and stored at −80° C. CARTs are generated by transduction of fresh or frozen naïve T cells obtained by negative magnetic selection of healthy donor blood or leukopak. T cells are activated by incubation with anti-CD3/anti-CD28 beads for 24 h, after which viral supernatant or concentrated virus (MOI=2 or 10, respectively) is added to the cultures. The modified T cells are allowed to expand for about 10 days. The percentage of cells transduced (expressing the CARs on the cell surface) and the level of CAR expression (relative fluorescence intensity, Geo Mean) are determined by flow cytometric analysis between days 7 and 9. The combination of slowing growth rate and T cell size approaching ˜350 fL determines the state for T cells to be cryopreserved for later analysis.
To evaluate the functionality of CARTs, the T cells are thawed and counted, and viability is assessed by Cellometer. The number of CAR-positive cells in each culture is normalized using non-transduced T cells (UTD). The impact of RAD001 on CARTs was tested in titrations with RAD001, starting at 50 nM. The target cell line used in all co-culture experiments is Nalm-6, a human pre-B cell acute lymphoblastic leukemia (ALL) cell line expressing CD19 and transduced to express luciferase.
For measuring the proliferation of CARTs, T cells are cultured with target cells at a ratio of 1:1. The assay is run for 4 days, when cells are stained for CD3, CD4, CD8 and CAR expression. The number of T cells is assessed by flow cytometry using counting beads as reference.

[2] = system: NALM6-luc tumors; assay: Tumor growth of NALM6-luc cells in NSG mice with daily RAD001 dosing; type: in vivo; settings: daily oral dosing of RAD001 alone, 0.3, 1, 3 and 10 mg/kg
Experimental: NALM6-luc cells: The NALM6 human acute lymphoblastic leukemia (ALL) cell line was developed from the peripheral blood of a patient with relapsed ALL. The cells were then tagged with firefly luciferase. These suspension cells grow in RPMI supplemented with 10% heat inactivated fetal bovine serum.
Mice: 6 week old NSG (NOD.Cg-PrkdcscidIl2rgtm1Wjl/SzJ) mice were received from the Jackson Laboratory (stock number 005557).
(§1) Tumor implantation: NALM6-luc cells were grown and expanded in vitro in RPMI supplemented with 10% heat inactivated fetal bovine serum. The cells were then transferred to a 15 ml conical tube and washed twice with cold sterile PBS. NALM6-luc cells were then counted and resuspended at a concentration of 10×10^6 cells per milliliter of PBS. The cells were placed on ice and immediately (within one hour) implanted in the mice. NALM6-luc cells were injected intravenously via the tail vein in a 100 μl volume, for a total of 1×10^6 cells per mouse.
(§2) RAD001 dosing: A concentrated micro-emulsion of 50 mg equal to 1 mg RAD001 was formulated and then resuspended in D5W (dextrose 5% in water) at the time of dosing. Mice were orally dosed daily (via oral gavage) with 200 μl of the desired doses of RAD001.

[3] = Pharmacokinetics of RAD001 in the blood of NSG mice with NALM6 tumors; type: in vivo; settings: for concentration at 24 h: mouse, blood
Experimental: as §2
PK analysis: Mice were dosed daily with RAD001 starting 7 days post tumor implantation. Dosing groups were as follows: 0.3 mg/kg, 1 mg/kg, 3 mg/kg, and 10 mg/kg. Mice were bled on days 0 and 14 following the first and last dose of RAD001, at the following time points for PK analysis: 15 minutes, 30 minutes, 1 hour, 2 hours, 4 hours, 8 hours, 12 hours, and 24 hours.

[4] = system: huCAR19 CAR T cells; assay: In vivo proliferation of humanized CD19 CAR T cells with and without RAD001 dosing; set-up: species or system NSG mice
Experimental: as §1
CAR T cell dosing: Mice were administered 5×10^6 CAR T cells 7 days after tumor implantation. Cells were partially thawed in a 37 degree Celsius water bath and then completely thawed by the addition of 1 ml of cold sterile PBS to the tube containing the cells. The thawed cells were transferred to a 15 ml falcon tube and adjusted to a final volume of 10 mls with PBS. The cells were washed twice at 1000 rpm for 10 minutes each time and then counted on a hemocytometer. T cells were then resuspended at a concentration of 50×10^6 CAR T cells per ml of cold PBS and kept on ice until the mice were dosed. The mice were injected intravenously via the tail vein with 100 μl of the CAR T cells for a dose of 5×10^6 CAR T cells per mouse. Eight mice per group were treated either with 100 μl of PBS alone (PBS), or humanized CD19 CAR T cells.
as §2
Based on these doses, huCAR19 CAR T cells were dosed with and without RAD001 to determine the proliferative ability of these cells. The highest dose used was 3 mg/kg based on the levels of RAD001 in the blood 24 hours after dosing. As the concentration of RAD001 was above 10 nM 24 hours after the final dose of RAD001, several lower doses of RAD001 were used in the in vivo study with CAR T cells. The CAR T cells were dosed IV one day prior to the start of the daily oral RAD001 dosing. Mice were monitored via FACS for T cell expansion.

concentration at 24 h ([3]; NSG, lowest dose tested (0.3 mg/kg), oral, read-out: RAD001 concentration in the blood 24 hours after dosing): > 10 nM
stability in the blood of tumor bearing mice ([3]; daily oral dosing, NSG mice): fairly stable
RAD001 concentration in the blood 24 hours after dosing ([3]; day 14, lowest dose tested (0.3 mg/kg), oral): above 10 nm
concentration at 24 h ([3]; 0.3 mg/kg, NSG mice, daily oral dosing, read-out: concentration of RAD001 24 hours after the final dose): > 10 nM
Compound: CO[C@H]1C[C@@H]2CC[C@@H](C)[C@@](O)(O2)C(=O)C(=O)N2CCCC[C@H]2C(=O)O[C@H]([C@H](C)C[C@@H]2CC[C@@H](OCCO)[C@H](OC)C2)CC(=O)[C@H](C)/C=C(\C)[C@@H](O)[C@@H](OC)C(=O)[C@H](C)C[C@H](C)/C=C/C=C/C=C/1C [RAD001, (1R,9S,12S,15R,16E,18R,19R,21R,23S,24E,26E,28E,30S,32S,35R)-1,18-dihydroxy-12-{(1R)-2-[(1S,3R,4R)-4-(2-hydroxyethoxy)-3-methoxycyclohexyl]-1-methylethyl}-19,30-dimethoxy-15,17,21,23,29,35-hexamethyl-11,36-dioxa-4-aza-tricyclo[30.3.1.04,9]hexatriaconta-16,24,26,28-tetraene-2,3,10,14,20-pentaone]
proliferation of huCART19 cells versus no RAD001 ([1]; 0.0032 nM RAD001): higher than observed without the addition of RAD001
proliferation of huCART19 cells versus no RAD001 ([1]; 0.016 nM RAD001): higher than observed without the addition of RAD001
RAD001 concentration at which huCART19 cells expanded ([1]; 4 day co-culture with Nalm-6, ratio 1:1): less than 0.016 nM
proliferation of CAR-expressing, transduced T cells ([1]; low doses of RAD001, cell culture system, FIG. 12): enhanced
growth of NALM6-luc tumors [2]: did not have an impact on the growth of NALM6-luc tumors
CAR T cell proliferation in vivo versus normal level of huCAR19 proliferation ([4]; 0.003 mg/kg RAD001 daily): enhancement in CAR T cell proliferation
enhanced proliferation, CD4+ CAR T cells compared with CD8+ CAR T cells ([4]; lowest doses of RAD001): more evident and prolonged
proliferation of CD8+ CAR T cells in vivo ([4]; lowest doses of RAD001): enhanced proliferation can be seen at early time points
proliferation of the CAR T cells in vivo ([4]; lowest doses of RAD001, daily oral): enhanced proliferation
